{"source": "paper PMC3608532", "about": "“Characterization of a Single-Chain Variable Fragment Recognizing a Linear Epitope of Aβ: A Biotechnical Tool for Studies on Alzheimer’s Disease?” (PLoS ONE, 2013)", "key": {"[1]": {"test_system": "Aβ(2-8)", "assay": "SPR binding kinetics to immobilized Aβ(2-8)", "settings": "SPR Biacore X, CM5 chip, PBS, 25°C, global fit; scFv-IC16 Langmuir 1:1 model, IC16 bivalent model; ± standard error; SEM", "description": "(§1) Binding kinetics were determined by SPR using a Biacore™ X (GE Healthcare, UK). Synthetic Aβ peptides were dissolved in 10 mM NaAc, pH 4.0. The CM5 sensor chip surface (GE Healthcare, UK) was activated using N-ethyl-N′-3 […] carbodiimide (EDC) and N-hydroxysuccinimide (NHS) chemistry followed by 2-(2-pyridinyldithio)ethaneamine hydrochloride (PDEA), in order to introduce a reactive thiol group. Aβ was coupled via the C-terminal cysteine to the chip at a flow rate of 5 µl/min, and the remaining active groups were blocked by injecting cysteine. The immobilization procedure was performed according to manufacturer’s recommendation. All kinetic analyses were performed at a flow rate of 20 µl/min in PBS. Varying concentrations of scFv-IC16 (10 to 5000 nM) and IC16 (10 to 1000 nM) were injected. […] When required, the surface was regenerated by injecting 20 µl 50 mM glycine, pH 11.0. The data evaluation was performed using Biaevaluation Software 4.1.1. ScFv-IC16 data were fitted according to the Langmuir 1∶1 binding model, whereas IC16 data were fitted according to the bivalent binding model. Standard errors of equilibrium dissociation constants (KD) were calculated using standard errors of the corresponding association and dissociation rate constants."}, "[2]": {"molecular_target": "Aβ(pE3-8)", "assay": "SPR binding kinetics to immobilized Aβ(pE3-8)", "settings": "SPR Biacore X, CM5 chip, PBS, 25°C, global fit, IC16 bivalent model", "description": "as §1"}, "[3]": {"test_system": "Aβ(1-8)", "assay": "SPR binding kinetics to immobilized Aβ(1-8)", "settings": "SPR Biacore X, PBS, 25°C, global fit, scFv-IC16 Langmuir 1:1 model, IC16 bivalent model, ± standard error, SEM", "description": "as §1"}, "[4]": {"test_system": "Aβ(8-15)", "assay": "SPR binding kinetics to immobilized Aβ(8-15)", "description": "as §1"}, "[5]": {"test_system": "Aβ(3-8)", "assay": "SPR binding kinetics to immobilized Aβ(3-8)", "settings": "SPR Biacore X, CM5 chip, PBS, 25°C, global fit; scFv-IC16 Langmuir 1:1 model, IC16 bivalent model; ± standard error; SEM", "description": "as §1"}}}
{"substance": "IC16: monoclonal IgG2a antibody recognizing Aβ(1-8), from hybridoma of mouse immunized with KLH Aβ(1-16)", "values": [{"measurement": "k off", "setting": "[1]", "value": "1.54±0.006×10^−3 s^-1"}, {"measurement": "k on", "setting": "[1]", "value": "4.85±0.01×10^4 M^-1 s^-1"}, {"measurement": "Kd", "setting": "[2]; n.d. = no detectable binding (footnote)", "value": 1.5, "unit": "µM"}, {"measurement": "k off", "setting": "[2]; ± standard error, SEM", "value": "63±0.05×10^−3 s^-1"}, {"measurement": "k on", "setting": "[2]; ± standard error, SEM", "value": "4.21±0.008×10^4 M^-1 s^-1"}, {"measurement": "k on", "setting": "[3]; Aβ peptide coupled via C-terminal cysteine to CM5 chip, 20 µl/min", "value": "3.5±0.02×10^4 M^-1 s^-1"}, {"measurement": "k off", "setting": "[3]; CM5 chip", "value": "1.8±0.02×10^−3 s^-1"}, {"measurement": "interaction with Aβ(8-15)", "setting": "[4]", "value": "No interaction"}, {"measurement": "k off", "setting": "[5]", "value": "3.43±0.007×10^−3 s^-1"}, {"measurement": "k on", "setting": "[5]", "value": "4.17±0.006×10^4 M^-1 s^-1"}]}
